From patent US9745311B2, “Substituted pyrrolo[2,3-b]pyrazines as FGFR inhibitors” (Incyte Corporation, priority 2012, dated 2017)
Read-outs that look alike come from different tables or passages of the source.

How the values were obtained:
[1] = target: FGFR1 (Homo sapiens (Human), UniProt P11362); test: FGFR Enzymatic Assay (FGFR1); format: biochemical; conditions: enzyme 0.02 nM, ATP 210 μM
[2] = target: FGFR2 (Homo sapiens (Human), UniProt P21802); test: FGFR Enzymatic Assay (FGFR2); format: biochemical;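 note: FRET read-out of peptide phosphorylation by the purified kinase, with enzyme-free blank and uninhibited enzyme as controls, potency from a variable-slope sigmoidal dose-response fit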
Experimental: (§1) The inhibitor potency of compounds was measured in an enzyme assay that measures peptide phosphorylation using FRET measurements to detect product formation. Inhibitors were serially diluted in DMSO and a volume of 0.5 μL was transferred to the wells of a 384-well plate. For FGFR3, a 10 μL volume of FGFR3 enzyme (Millipore) diluted in assay buffer (50 mM HEPES, 10 mM MgCl2, 1 mM EGTA, 0.01% Tween-20, 5 mM DTT, pH 7.5) was added to the plate and pre-incubated for 5-10 minutes. Appropriate controls (enzyme blank and enzyme with no inhibitor) were included on the plate. […] The plate was incubated at 25° C. for 1 hr. […] The plate was allowed to equilibrate for ˜1 hr before scanning the wells on a PheraStar plate reader.
(§2) GraphPad prism3 was used to analyze the data. The IC50 values were derived by fitting the data to the equation for a sigmoidal dose-response with a variable slope. Y=Bottom+(Top−Bottom)/(1+10^((Log IC50−X)*HillSlope)) where X is the logarithm of concentration and Y is the response.

[3] = target: FGFR3 enzyme (Millipore) (Homo sapiens (Human), UniProt P22607); test: biochemical
Experimental: as §1, §2

[4] = enzyme 0.01 nM, ATP 100 μM, read-out: FGFR2 IC50

FGFR2, sequence (P21802 22-821): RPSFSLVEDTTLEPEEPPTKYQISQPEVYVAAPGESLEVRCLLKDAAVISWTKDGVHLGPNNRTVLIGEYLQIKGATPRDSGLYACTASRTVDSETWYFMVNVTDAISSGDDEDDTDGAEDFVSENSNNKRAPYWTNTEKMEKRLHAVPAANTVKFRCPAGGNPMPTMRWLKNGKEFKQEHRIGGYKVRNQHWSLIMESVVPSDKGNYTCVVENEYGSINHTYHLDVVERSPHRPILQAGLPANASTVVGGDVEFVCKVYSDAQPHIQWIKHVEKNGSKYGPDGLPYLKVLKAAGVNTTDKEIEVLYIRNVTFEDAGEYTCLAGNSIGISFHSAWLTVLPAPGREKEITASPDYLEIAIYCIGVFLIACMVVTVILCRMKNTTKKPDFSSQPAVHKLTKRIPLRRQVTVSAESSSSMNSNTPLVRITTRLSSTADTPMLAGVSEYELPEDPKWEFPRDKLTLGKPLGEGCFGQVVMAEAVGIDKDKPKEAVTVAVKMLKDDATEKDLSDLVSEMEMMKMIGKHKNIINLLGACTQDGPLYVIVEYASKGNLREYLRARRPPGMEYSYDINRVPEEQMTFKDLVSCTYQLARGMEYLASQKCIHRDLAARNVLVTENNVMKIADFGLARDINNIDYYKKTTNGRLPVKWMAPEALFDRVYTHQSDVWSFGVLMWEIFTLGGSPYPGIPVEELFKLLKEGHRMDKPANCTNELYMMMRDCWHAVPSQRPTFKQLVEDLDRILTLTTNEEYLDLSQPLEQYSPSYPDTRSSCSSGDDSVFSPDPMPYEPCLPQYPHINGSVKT
FGFR3 enzyme (Millipore), sequence (P22607 23-806): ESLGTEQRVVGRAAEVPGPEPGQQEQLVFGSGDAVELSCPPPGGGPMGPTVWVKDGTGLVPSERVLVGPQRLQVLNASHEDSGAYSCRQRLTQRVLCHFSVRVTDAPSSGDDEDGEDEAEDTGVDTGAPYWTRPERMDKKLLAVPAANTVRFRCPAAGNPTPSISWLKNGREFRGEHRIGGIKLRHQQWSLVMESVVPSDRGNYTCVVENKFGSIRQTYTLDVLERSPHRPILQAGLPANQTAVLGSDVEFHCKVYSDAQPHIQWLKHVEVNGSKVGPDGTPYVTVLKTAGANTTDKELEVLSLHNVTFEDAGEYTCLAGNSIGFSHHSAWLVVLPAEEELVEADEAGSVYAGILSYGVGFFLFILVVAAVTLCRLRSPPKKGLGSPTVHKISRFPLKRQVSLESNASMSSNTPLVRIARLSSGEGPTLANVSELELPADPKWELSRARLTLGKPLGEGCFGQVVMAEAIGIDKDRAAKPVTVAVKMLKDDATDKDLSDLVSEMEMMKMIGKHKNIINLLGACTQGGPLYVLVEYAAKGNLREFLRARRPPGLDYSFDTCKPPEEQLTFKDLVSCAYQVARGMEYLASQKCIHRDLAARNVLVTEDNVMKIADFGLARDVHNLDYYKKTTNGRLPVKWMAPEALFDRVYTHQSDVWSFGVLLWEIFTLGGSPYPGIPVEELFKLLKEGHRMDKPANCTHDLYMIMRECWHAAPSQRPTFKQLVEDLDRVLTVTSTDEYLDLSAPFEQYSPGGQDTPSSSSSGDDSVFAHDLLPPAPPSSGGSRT
FGFR1, sequence (P11362 22-822): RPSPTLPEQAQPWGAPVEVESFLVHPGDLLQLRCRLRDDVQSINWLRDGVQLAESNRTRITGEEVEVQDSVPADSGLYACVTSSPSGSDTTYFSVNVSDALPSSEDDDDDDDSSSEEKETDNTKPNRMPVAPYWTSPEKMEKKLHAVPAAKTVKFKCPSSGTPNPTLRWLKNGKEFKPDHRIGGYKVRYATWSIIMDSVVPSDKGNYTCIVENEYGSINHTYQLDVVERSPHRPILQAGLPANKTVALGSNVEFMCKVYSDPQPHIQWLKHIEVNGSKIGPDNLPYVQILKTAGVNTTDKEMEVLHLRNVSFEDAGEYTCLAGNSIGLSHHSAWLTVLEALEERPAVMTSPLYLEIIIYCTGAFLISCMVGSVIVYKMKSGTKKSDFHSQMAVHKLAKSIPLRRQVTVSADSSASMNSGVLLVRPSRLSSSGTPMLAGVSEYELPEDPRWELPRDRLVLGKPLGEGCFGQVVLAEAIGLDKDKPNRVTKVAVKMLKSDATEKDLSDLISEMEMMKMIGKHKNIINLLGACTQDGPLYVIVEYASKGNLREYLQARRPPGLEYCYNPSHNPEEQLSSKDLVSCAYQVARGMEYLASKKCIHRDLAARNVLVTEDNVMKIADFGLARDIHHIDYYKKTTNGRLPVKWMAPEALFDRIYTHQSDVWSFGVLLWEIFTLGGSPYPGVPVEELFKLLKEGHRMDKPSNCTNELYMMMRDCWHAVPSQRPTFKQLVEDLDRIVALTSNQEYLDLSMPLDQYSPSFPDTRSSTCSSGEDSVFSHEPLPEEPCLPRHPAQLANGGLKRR

| Compound | IC50 [1] [nM] | IC50 [2, 4] [nM] | IC50 [3] [nM] | IC50 [2] [nM] |
| --- | --- | --- | --- | --- |
| COc1cc(CCc2cnc3[nH]c(-c4ccnc(C(=O)N(C)C)c4)cc3n2)cc(OC)c1 [Example 74, 4-(2-(3,5-Dimethoxyphenethyl)-5H-pyrrolo[2,3-b]pyrazin-6-yl)-N,N-dimethylpicolinamide] | < 100 | < 100 | 100 to 500 |  |
| COc1cc(CCc2cnc3[nH]c(-c4cn[nH]c4)cc3n2)cc(OC)c1 [Example 29, 2-[2-(3,5-dimethoxyphenyl)ethyl]-6-(1H-pyrazol-4-yl)-5H-pyrrolo[2,3-b]pyrazine] | < 100 | < 100 | 100 to 500 |  |
| COc1cc(CCc2cnc3[nH]c(-c4ccc5cnn(C)c5c4)cc3n2)cc(OC)c1 [Example 63, 2-(3,5-Dimethoxyphenethyl)-6-(1-methyl-1H-indazol-6-yl)-5H-pyrrolo[2,3-b]pyrazine] | < 100 | < 100 | 100 to 500 |  |
| COc1cc(CCc2cnc3[nH]c(-c4ccc(NC(C)=O)nc4)cc3n2)cc(OC)c1 [Example 67, N-(5-(2-(3,5-Dimethoxyphenethyl)-5H-pyrrolo[2,3-b]pyrazin-6-yl)pyridin-2-yl)acetamide] | < 100 | < 100 | 100 to 500 |  |
| COc1cc(CCc2cnc3[nH]c(-c4cncc(C(=O)N5CCOCC5)c4)cc3n2)cc(OC)c1 [Example 18, 2-[2-(3,5-dimethoxyphenyl)ethyl]-6-[5-(morpholin-4-ylcarbonyl)pyridin-3-yl]-5H-pyrrolo[2,3-b]pyrazine] | < 100 | < 100 | 500 to 2700 |  |
| CNC(=O)c1ccc(-c2cc3nc(CCc4cc(OC)cc(OC)c4)cnc3[nH]2)cn1 [Example 17, 5-{2-[2-(3,5-dimethoxyphenyl)ethyl]-5H-pyrrolo[2,3-b]pyrazin-6-yl}-N-methylpyridine-2-carboxamide] | < 100 | < 100 | 100 to 500 |  |
| COc1cc(CCc2cnc3[nH]c(-c4ccc(N5CCCC5=O)nc4)cc3n2)cc(OC)c1 [Example 68, 1-(5-(2-(3,5-Dimethoxyphenethyl)-5H-pyrrolo[2,3-b]pyrazin-6-yl)pyridin-2-yl)pyrrolidin-2-one] | < 100 | < 100 | 100 to 500 |  |
| COc1cc(CCc2cnc3[nH]c(-c4cnn(CC(=O)N(C)C)c4)cc3n2)cc(OC)c1 [Example 43, 2-(4-{2-[2-(3,5-dimethoxyphenyl)ethyl]-5H-pyrrolo[2,3-b]pyrazin-6-yl}-1H-pyrazol-1-yl)-N,N-dimethylacetamide] | < 100 | < 100 | 100 to 500 |  |
| COc1cc(CCc2cnc3[nH]c(-c4ccc(C(F)(F)F)cc4)cc3n2)cc(OC)c1 [Example 8, 2-[2-(3,5-dimethoxyphenyl)ethyl]-6-[4-(trifluoromethyl)phenyl]-5H-pyrrolo[2,3-b]pyrazine] | < 100 |  | 100 to 500 | 100 to 500 |
| COc1cc(CCc2cnc3[nH]c(-c4ccc5[nH]ncc5c4)cc3n2)cc(OC)c1 [Example 70, 2-(3,5-Dimethoxyphenethyl)-6-(1H-indazol-5-yl)-5H-pyrrolo[2,3-b]pyrazine] | < 100 | < 100 | 100 to 500 |  |
| COc1cc(CCc2cnc3[nH]c(-c4ccnc(C#N)c4)cc3n2)cc(OC)c1 [Example 60, 4-(2-(3,5-Dimethoxyphenethyl)-5H-pyrrolo[2,3-b]pyrazin-6-yl)picolinonitrile] | < 100 | < 100 | 100 to 500 |  |
| CNC(=O)c1c(-c2ccc(N3CCN(C)CC3)cc2)[nH]c2ncc(CCc3cc(OC)cc(OC)c3)nc12 [Example 50, 2-[2-(3,5-dimethoxyphenyl)ethyl]-N-methyl-6-[4-(4-methylpiperazin-1-yl)phenyl]-5H-pyrrolo[2,3-b]pyrazine-7-carboxamide] | < 100 | < 100 | 500 to 2700 |  |
| COc1cc(CCc2cnc3[nH]c(-c4ccc(NC(C)=O)cc4)cc3n2)cc(OC)c1 [Example 6, N-(4-{2-[2-(3,5-dimethoxyphenyl)ethyl]-5H-pyrrolo[2,3-b]pyrazin-6-yl}phenyl)acetamide] | < 100 | < 100 | 100 to 500 |  |
| COc1cc(CCc2cnc3[nH]c(-c4ccc(N5CCN(C)CC5)nc4)cc3n2)cc(OC)c1 [Example 16, 2-[2-(3,5-dimethoxyphenyl)ethyl]-6-[6-(4-methylpiperazin-1-yl)pyridin-3-yl]-5H-pyrrolo[2,3-b]pyrazine] | < 100 | < 100 | 100 to 500 |  |
